Experimental data reported in patent US20120028897A1, “METHODS AND COMPOSITIONS FOR THE TREATMENT OF FLUID RETENTION DISORDERS” (priority 2008, published 2012).
Read-outs that look alike come from different tables or passages of the source. Bridges are numbered along the chain shown (N, C = ends). Where no end group is shown, it is not given here.

Legend:
[1] = 37° C., cited from earlier work
[2] = molecular target: guanylate cyclase C (GC-C) receptor (UniProt P25092 24-1073, limits assumed); test: cell-based or functional assay
Sequence of guanylate cyclase C (GC-C) receptor (P25092 24-1073 limits assumed): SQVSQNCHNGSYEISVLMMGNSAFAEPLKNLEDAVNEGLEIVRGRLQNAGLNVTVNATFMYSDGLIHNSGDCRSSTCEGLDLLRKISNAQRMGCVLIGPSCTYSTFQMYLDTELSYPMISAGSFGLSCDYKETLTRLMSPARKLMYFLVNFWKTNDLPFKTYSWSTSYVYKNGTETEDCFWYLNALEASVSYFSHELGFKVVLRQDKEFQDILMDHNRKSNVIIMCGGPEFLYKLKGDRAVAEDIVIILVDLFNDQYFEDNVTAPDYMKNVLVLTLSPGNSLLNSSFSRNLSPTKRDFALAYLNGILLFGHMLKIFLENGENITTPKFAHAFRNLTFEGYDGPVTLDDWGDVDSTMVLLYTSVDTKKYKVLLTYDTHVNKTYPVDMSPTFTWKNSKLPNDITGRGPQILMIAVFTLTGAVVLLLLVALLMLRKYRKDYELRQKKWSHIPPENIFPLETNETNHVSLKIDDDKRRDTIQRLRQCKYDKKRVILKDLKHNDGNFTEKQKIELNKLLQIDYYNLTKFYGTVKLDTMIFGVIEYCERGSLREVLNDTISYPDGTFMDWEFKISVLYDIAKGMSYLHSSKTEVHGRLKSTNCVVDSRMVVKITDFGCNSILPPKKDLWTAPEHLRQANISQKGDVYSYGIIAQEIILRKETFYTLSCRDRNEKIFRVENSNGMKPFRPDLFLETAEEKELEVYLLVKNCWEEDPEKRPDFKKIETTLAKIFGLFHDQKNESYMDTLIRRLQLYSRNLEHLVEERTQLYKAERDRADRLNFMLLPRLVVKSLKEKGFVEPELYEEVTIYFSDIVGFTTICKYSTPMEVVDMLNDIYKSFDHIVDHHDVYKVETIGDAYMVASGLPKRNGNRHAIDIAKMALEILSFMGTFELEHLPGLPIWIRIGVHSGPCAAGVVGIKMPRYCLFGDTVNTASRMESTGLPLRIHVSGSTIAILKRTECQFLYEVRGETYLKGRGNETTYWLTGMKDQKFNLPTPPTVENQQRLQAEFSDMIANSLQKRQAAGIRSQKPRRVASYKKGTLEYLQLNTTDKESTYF

| cyclic GMP synthesis in T84 cells, potency against huUgnA [2] | Molecule | half life of each stereoisomer (A/B interconversion) [1] | half life of each stereoisomer (A/B interconversion) ([1]; listed as human Ugn) |
| --- | --- | --- | --- |
|  | CC(C)C[C@H](NC(=O)[C@@H]1CSSC[C@@H]2NC(=O)[C@H](CC(C)C)NC(=O)[C@H](CCC(=O)O)NC(=O)[C@@H](NC(=O)[C@H](CC(=O)O)NC(=O)[C@H](CC(=O)O)NC(=O)[C@@H](N)CC(N)=O)CSSC[C@H](NC(=O)[C@H](C)NC(=O)[C@H](C(C)C)NC(=O)[C@H](CC(N)=O)NC(=O)[C@H](C(C)C)NC2=O)C(=O)N[C@@H]([C@@H](C)O)C(=O)NCC(=O)N1)C(=O)O [huUgn, Asn Asp Asp Cys Glu Leu Cys Val Asn Val Ala Cys Thr Gly Cys Leu] | approximately 2 days | about 2 days |
| > 100 fold less potent than huUgnA | NDDCELCVNVACTGCL (disulfide 4-12, 7-15) [Human UgnB (B isoform of human uroguanylin)] |  |  |
